According to PubChem BioAssay AID1845208 (Molecular Pharmacology Branch, DTP, NCI, 2023):

Test system: NCI-H196 SCLC complex tumor spheroid viability
Assay: Anticancer human tumor NCI-H196 cell line growth inhibition;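 note: spheroids exposed to compounds for 7 days before readout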;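 for viability, T/C: 100% = DMSO vehicle control wells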
Conditions: for IC50: curve of first compound; for viability, T/C: stronger effect = lower value
From the text: Multicellular complex tumor spheroid response to DNA repair inhibitors in combination with DNA-damaging drugs
This study explores the anticancer activities of DNA-damaging drugs and inhibitors of DNA damage repair, both as single agents and in combinations. Complex tumor spheroids comprised of malignant cells, endothelial cells and mesenchymal stem cells served as an in vitro model for human solid tumors. This model system incorporates physiologically relevant features and patient-derived or established malignant cell lines with clinically relevant genetic alterations from many tumor types. Twenty-six patient-derived or established malignant cell lines were evaluated representing sarcoma, melanoma, small cell lung cancer (SCLC), non-small cell lung cancer (NSCLC), as well as bladder, ovarian and pancreatic cancers. The concentration ranges selected for each drug and investigational agent were based upon clinically achievable concentrations if the clinical Cmax of the agent was known.
Compounds. The drugs and compounds olaparib (NSC753686), talazoparib (NSC767125), berzosertib (NSC777718), elimusertib (NSC800525), nedisertib (NSC802822), VX-984 (NSC792969), AZD-1390 (NSC803789), temozolomide (NSC362856), topotecan (NSC609699), trabectedin (NSC813783), staurosporine (NSC755774), and gemcitabine (NSC613327) were obtained from the National Cancer Institute (NCI) Developmental Therapeutics Program Chemical Repository. The FDA-approved anticancer drug set is available from the Developmental Therapeutics Program at https://dtp.cancer.gov/organization/dscb/obtaining/available_plates.htm. […] The stock solutions were prepared in dimethyl sulfoxide (DMSO, Sigma-Aldrich, St. Louis, MO, cat. D2650) at 400-fold the tested concentration and stored at -70 degrees C. Prior to their use, the stock solutions were diluted in fresh medium and the final DMSO concentration in the assay was 0.25% (v/v). All drugs and investigational agents were tested over a range starting from a high concentration at or near the clinical Cmax and decreasing in half-log increments. If the clinical Cmax for an agent had not been determined, the highest concentration tested was 10 microM.
Cell Lines. The patient-derived cancer cell (PDC) lines: 156681-154-R-J1-PDC, 283228-195-R-J1-PDC, 287954-098-R-J1-PDC, 292921-168-R-J2-PDC, 349418-098-R-PDC, 425362-245-T-J1-PDC, 556581-035-R-J1-PDC, and BL0293-F563-PDC were received from the NCI Patient-Derived Models Repository (PDMR, https://pdmr.cancer.gov). The established cell lines HS-SY-2 (RRID:CVCL_8719), MPNST, and SYO-1 (RRID:CVCL_7146) were obtained from the Sloan Kettering Institute. The alveolar soft parts sarcoma cell line ASPS-1 (RRID:CVCL_S738) was established at the NCI and grown from internal seed stocks. The following established cell lines were purchased from the American Type Culture Collection (ATCC, Manassas, VA): G-401 (ATCC, cat. CRL-1441, RRID:CVCL_0270), SW982 (ATCC, cat. HTB-93, RRID:CVCL_1734), VA-ES-BJ (ATCC, cat. CRL-2138, RRID:CVCL_1785), NCI-H719 (ATCC, cat. CRL-5837, RRID:CVCL_1582), NCI-H196 (ATCC, cat. CRL-5823, RRID:CVCL_1509), NCI-H841 (ATCC, cat. CRL-5845, RRID:CVCL_1595), NCI-H1618 (ATCC, cat. CRL-5879, RRID:CVCL_1480), NCI-H1876 (ATCC, cat. CRL-5902, RRID:CVCL_1503), DMS 114 (ATCC, cat. CRL-2066; RRID:CVCL_1174), NCI-H211 (ATCC, cat. CRL-5824; RRID:CVCL_1529), and SW 1271 (ATCC, cat. CRL-2177, RRID:CVCL_1716). The small cell lung cancer cell line COR-L88 was purchased from Sigma-Aldrich (cat. 92031917-1VL, RRID:CVCL_1141). The non-small cell lung cancer cell lines NCI-H226 (RRID:CVCL_1544) and NCI-H322M (RRID:CVCL_1557) were established at the NCI and grown from internal seed stocks. Pooled donor human umbilical vein endothelial cells (HUVEC, Lonza, cat. CC-2519) and human mesenchymal stem cells (hMSC, Lonza, cat. PT-2501) were purchased from Lonza (Walkersville, MD).
Cell Culture. All cells were maintained in an incubator at 37 degrees C and 5% CO2 with 95% humidity. […]

[1] = second compound 0.003 µM, first compound 0.0316 µM
[2] = second compound 0.003 µM, first compound 0.1 µM
[3] = second compound 0.003 µM, first compound 0.316 µM
[4] = second compound 0.003 µM, first compound 1 µM
[5] = second compound 0.003 µM, first compound 3.16 µM
[6] = second compound 0.003 µM, first compound 10 µM
[7] = second compound 0.00949 µM, first compound 0.0316 µM
[8] = second compound 0.00949 µM, first compound 0.1 µM
[9] = second compound 0.00949 µM, first compound 0.316 µM
[10] = second compound 0.00949 µM, first compound 1 µM
[11] = second compound 0.00949 µM, first compound 3.16 µM
[12] = second compound 0.00949 µM, first compound 10 µM
[13] = second compound 0.03 µM, first compound 0.0316 µM
[14] = second compound 0.03 µM, first compound 0.1 µM
[15] = second compound 0.03 µM, first compound 0.316 µM
[16] = second compound 0.03 µM, first compound 1 µM
[17] = second compound 0.03 µM, first compound 3.16 µM
[18] = second compound 0.03 µM, first compound 10 µM
[19] = second compound 0.0949 µM, first compound 0.0316 µM
[20] = second compound 0.0949 µM, first compound 0.1 µM
[21] = second compound 0.0949 µM, first compound 0.316 µM
[22] = second compound 0.0949 µM, first compound 1 µM
[23] = second compound 0.0949 µM, first compound 3.16 µM
[24] = second compound 0.0949 µM, first compound 10 µM
[25] = second compound 0.3 µM, first compound 0.0316 µM
[26] = second compound 0.3 µM, first compound 0.1 µM
[27] = second compound 0.3 µM, first compound 0.316 µM
[28] = second compound 0.3 µM, first compound 1 µM
[29] = second compound 0.3 µM, first compound 3.16 µM
[30] = second compound 0.3 µM, first compound 10 µM

SMILES | IC50 (second compound 0.003 µM) [µM] | IC50 (second compound 0.00949 µM) [µM] | IC50 (second compound 0.03 µM) [µM] | IC50 (second compound 0.0949 µM) [µM] | IC50 (second compound 0.3 µM) [µM] | viability, T/C [1] [%] | viability, T/C [2] [%] | viability, T/C [3] [%] | viability, T/C [4] [%] | viability, T/C [5] [%] | viability, T/C [6] [%] | viability, T/C [7] [%] | viability, T/C [8] [%] | viability, T/C [9] [%] | viability, T/C [10] [%] | viability, T/C [11] [%] | viability, T/C [12] [%] | viability, T/C [13] [%] | viability, T/C [14] [%] | viability, T/C [15] [%] | also measured
COc1cc(C)[nH]c(=O)c1CN1CCc2c(Cl)cc(C(OC)C3COC3)c(Cl)c2C1=O (stereo not given) + CC[C@@]1(O)C(=O)OCc2c1cc1n(c2=O)Cc2cc3c(CN(C)C)c(O)ccc3nc2-1 | > 10 | > 10 | > 10 | > 10 | > 10 | 108 | 105 | 99.9 | 101 | 103 | 97.8 | 102 | 98.6 | 91.5 | 93.3 | 99.6 | 106 | 99.3 | 93.5 | 97.5 | viability, T/C [16]: 89.2%; viability, T/C [17]: 95.7%; viability, T/C [18]: 99.3%; viability, T/C [19]: 106%; viability, T/C [20]: 109%; viability, T/C [21]: 99.8%; viability, T/C [22]: 102%; viability, T/C [23]: 94.2%; viability, T/C [24]: 106%; viability, T/C [25]: 104%; viability, T/C [26]: 101%; viability, T/C [27]: 99.8%; viability, T/C [28]: 102%; viability, T/C [29]: 95.8%; viability, T/C [30]: 88.7%
Cc1cc(C)c(CNC(=O)c2cc(-c3ccc(CN4CCOCC4)cc3)cc3c2cnn3C2CCCC2)c(=O)[nH]1 + CC[C@@]1(O)C(=O)OCc2c1cc1n(c2=O)Cc2cc3c(CN(C)C)c(O)ccc3nc2-1 | > 10 | > 10 | > 10 | > 10 | > 10 | 99.4 | 94.9 | 102 | 95.6 | 101 | 104 | 96.5 | 105 | 99.9 | 88.7 | 94.7 | 96.5 | 91.8 | 96.1 | 98.4 | viability, T/C [16]: 93%; viability, T/C [17]: 97.5%; viability, T/C [18]: 112%; viability, T/C [19]: 102%; viability, T/C [20]: 101%; viability, T/C [21]: 108%; viability, T/C [22]: 98.5%; viability, T/C [23]: 97%; viability, T/C [24]: 98.6%; viability, T/C [25]: 95.6%; viability, T/C [26]: 87.7%; viability, T/C [27]: 86.1%; viability, T/C [28]: 87.9%; viability, T/C [29]: 79.9%; viability, T/C [30]: 86.9%
[2H]c1nc(C)nc([2H])c1-c1cc(NC[C@@H](C)c2cccc3c(C(=O)NC)ccnc23)ncn1 + CC[C@@]1(O)C(=O)OCc2c1cc1n(c2=O)Cc2cc3c(CN(C)C)c(O)ccc3nc2-1 | > 10 | > 10 | > 10 | > 10 | > 10 | 103 | 104 | 92.5 | 97.2 | 106 | 100 | 100 | 96.5 | 91.8 | 95.5 | 99.7 | 100 | 96.8 | 102 | 95.4 | viability, T/C [16]: 93.4%; viability, T/C [17]: 95.5%; viability, T/C [18]: 94.6%; viability, T/C [19]: 99.4%; viability, T/C [20]: 102%; viability, T/C [21]: 107%; viability, T/C [22]: 102%; viability, T/C [23]: 100%; viability, T/C [24]: 102%; viability, T/C [25]: 109%; viability, T/C [26]: 103%; viability, T/C [27]: 94.8%; viability, T/C [28]: 105%; viability, T/C [29]: 104%; viability, T/C [30]: 100%
